# Reference: PubChem BioAssay (NCI)
#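 The compound was tested at five concentrations on cells cultured in 96-well plates, with a 48-hour exposure period. TGI: concentration producing complete growth inhibition.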
# Key:
# Experiment in all cases: NCI-60 cell line screen, 48 h
# [1] = system: HL-60(TB) leukemia
# [2] = system: HCT-15 colon
# [3] = system: SW-620 colon
# [4] = system: LOX IMVI melanoma
# [5] = system: SN12C renal
# [6] = system: UACC-257 melanoma
# [7] = system: A498 renal
# [8] = system: SK-MEL-5 melanoma
# [9] = system: MOLT-4 leukemia
# [10] = system: RPMI-8226 leukemia
# [11] = system: TK-10 renal
# [12] = system: U251 CNS
# [13] = system: IGROV1 ovarian
# [14] = system: RXF 393 renal
# [15] = system: A549 NSCLC
# [16] = system: EKVX NSCLC
# [17] = system: OVCAR-3 ovarian
# [18] = system: UACC-62 melanoma
# [19] = system: OVCAR-5 ovarian
# [20] = system: SNB-75 CNS
# [21] = system: SNB-19 CNS
# [22] = system: OVCAR-4 ovarian
# [23] = system: MDA-MB-231 breast
# [24] = system: SR leukemia
# [25] = system: HCC-2998 colon
# [26] = system: ACHN renal
# [27] = system: HCT-116 colon
# [28] = system: HOP-62 NSCLC
# [29] = system: UO-31 renal
# [30] = system: MCF7 breast
# [31] = system: SF-539 CNS
# [32] = system: CCRF-CEM leukemia
# [33] = system: CAKI-1 renal
# [34] = system: SF-268 CNS
# [35] = system: M14 melanoma
# [36] = system: T-47D breast
# [37] = system: HS 578T breast
# [38] = system: MDA-N
# [39] = system: NCI/ADR-RES ovarian
# [40] = system: 786-0 renal
# [41] = system: NCI-H460 lung
# [42] = system: NCI-H23 lung
# [43] = system: COLO 205 colon
# [44] = system: SK-MEL-2 melanoma
# [45] = system: SK-OV-3 ovarian
# [46] = system: OVCAR-8 ovarian
# [47] = system: MALME-3M melanoma
# [48] = system: K-562 leukemia
# [49] = system: HT29 colon
# [50] = system: SF-295 CNS
# [51] = system: NCI-H226 lung
# [52] = system: PC-3 prostate
# [53] = system: MDA-MB-435
# [54] = system: NCI-H522 lung
# [55] = system: DU-145 prostate
# [56] = system: SK-MEL-28 melanoma
# [57] = system: KM12 colon
# [58] = system: HOP-92 NSCLC
structure (smiles),measurement,setting,value
Cc1nc2ccc(Cl)cc2c2c1CCN2c1ccc(F)cc1,TGI,[1],35.3 µM
same,TGI,[2],> 100 µM
same,TGI,[3],> 100 µM
same,TGI,[4],78.1 µM
same,TGI,[5],> 100 µM
same,TGI,[6],49.6 µM
same,TGI,[7],68.4 µM
same,TGI,[8],21.6 µM
same,TGI,[9],> 100 µM
same,TGI,[10],65.1 µM
same,TGI,[11],> 100 µM
same,TGI,[12],> 100 µM
same,TGI,[13],72.7 µM
same,TGI,[14],93.3 µM
same,TGI,[15],> 100 µM
same,TGI,[16],> 100 µM
same,TGI,[17],> 100 µM
same,TGI,[18],87.4 µM
same,TGI,[19],> 100 µM
same,TGI,[20],9.13 µM
same,TGI,[21],> 100 µM
same,TGI,[22],> 100 µM
same,TGI,[23],81.3 µM
same,TGI,[24],73.8 µM
same,TGI,[25],> 100 µM
same,TGI,[26],> 100 µM
same,TGI,[27],> 100 µM
same,TGI,[28],> 100 µM
same,TGI,[29],> 100 µM
same,TGI,[30],59.1 µM
same,TGI,[31],54.8 µM
same,TGI,[32],> 100 µM
same,TGI,[33],> 100 µM
same,TGI,[34],> 100 µM
same,TGI,[35],51.7 µM
same,TGI,[36],> 100 µM
same,TGI,[37],> 100 µM
same,TGI,[38],> 100 µM
same,TGI,[39],> 100 µM
same,TGI,[40],> 100 µM
same,TGI,[41],> 100 µM
same,TGI,[42],> 100 µM
same,TGI,[43],56.5 µM
same,TGI,[44],> 100 µM
same,TGI,[45],> 100 µM
same,TGI,[46],> 100 µM
same,TGI,[47],82 µM
same,TGI,[48],> 100 µM
same,TGI,[49],> 100 µM
same,TGI,[50],> 100 µM
same,TGI,[51],88.8 µM
same,TGI,[52],> 100 µM
same,TGI,[53],63.6 µM
same,TGI,[54],> 100 µM
same,TGI,[55],> 100 µM
same,TGI,[56],75.7 µM
same,TGI,[57],> 100 µM
O=C1c2cc3c(cc2CC12Cc1ccccc1C2)CCC3,TGI,[1],81.6 µM
same,TGI,[2],> 100 µM
same,TGI,[3],> 100 µM
same,TGI,[4],36 µM
same,TGI,[5],> 100 µM
same,TGI,[6],54.4 µM
same,TGI,[7],> 100 µM
same,TGI,[8],32.2 µM
same,TGI,[9],54.5 µM
same,TGI,[10],68.2 µM
same,TGI,[11],> 100 µM
same,TGI,[58],64.3 µM
same,TGI,[12],> 100 µM
same,TGI,[13],> 100 µM
same,TGI,[14],67.2 µM
same,TGI,[15],> 100 µM
same,TGI,[16],> 100 µM
same,TGI,[17],> 100 µM
same,TGI,[19],> 100 µM
same,TGI,[20],93.8 µM
same,TGI,[21],> 100 µM
same,TGI,[22],> 100 µM
same,TGI,[23],66.7 µM
same,TGI,[24],74.7 µM
same,TGI,[25],> 100 µM
same,TGI,[26],97.7 µM
same,TGI,[27],47.5 µM
same,TGI,[28],92 µM
same,TGI,[29],> 100 µM
same,TGI,[30],54.6 µM
same,TGI,[31],93.2 µM
same,TGI,[32],98.3 µM
same,TGI,[33],75.1 µM
same,TGI,[34],93.7 µM
same,TGI,[35],70.6 µM
same,TGI,[36],> 100 µM
same,TGI,[37],> 100 µM
same,TGI,[38],86.8 µM
same,TGI,[39],76.8 µM
same,TGI,[40],64.8 µM
same,TGI,[41],> 100 µM
same,TGI,[42],> 100 µM
same,TGI,[43],48.5 µM
same,TGI,[44],51.8 µM
same,TGI,[45],> 100 µM
same,TGI,[46],76.7 µM
same,TGI,[47],71.5 µM
same,TGI,[48],> 100 µM
same,TGI,[49],50.5 µM
same,TGI,[50],> 100 µM
same,TGI,[51],73.8 µM
same,TGI,[52],> 100 µM
same,TGI,[53],73.1 µM
same,TGI,[54],93.3 µM
same,TGI,[55],> 100 µM
same,TGI,[56],> 100 µM
same,TGI,[57],56.9 µM
